Measurements reported in US20240051952A1, “HMOX1 INDUCERS” (Mitobridge Inc., priority 2019, published 2024).

Test system: Human Heme Oxygenase-1 (HMOX-1)
Assay: ELISA assay to measure human heme oxygenase-1 (HMOX-1) in HepG2 lysate
Assay type: cell-based
Conditions: for Maximum Fold induction: fold change of human HMOX1 protein levels relative to DMSO control, HepG2; for EC50: human HMOX1 protein in HepG2 lysate, ELISA, * = average of 2 or more EC50 determinations, NA = Not Active
Outline: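 HepG2 cells lysed in PBS/0.5% Triton X-100/1 mM EDTA with protease inhibitors; lysate diluted 1:20. Sandwich ELISA: anti-HO-1 capture (8 μg/ml), biotinylated detection antibody (200 ng/ml), streptavidin-HRP, chemiluminescent read. Quantified against 12-point HO-1 standard curve from 20 ng/ml; incubations at 20 °C.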

Row | SMILES | Maximum Fold induction | EC50 [nM]
1 | COCCNC(=O)c1ccc2c(c1)nc(Nc1nc3cc(OC(F)(F)F)ccc3[nH]1)n2C1CCOCC1 [Example 81, N-(2-methoxyethyl)-1-(tetrahydro-2H-pyran-4-yl)-2-((5-(trifluoromethoxy)-1H-benzo[d]imidazol-2-yl)amino)-1H-benzo[d]imidazole-5-carboxamide] | 19-30 | 
2 | Cn1c(Nc2nc3cc(Cl)ccc3[nH]2)nc2cc(C(=O)O)ccc21 [Example 82, 2-((5-chloro-1H-benzo[d]imidazol-2-yl)amino)-1-methyl-1H-benzo[d]imidazole-5-carboxylic acid] | 29-33 | 
3 | COCCNC(=O)c1ccc2c(c1)nc(Nc1nc3cc(Cl)ccc3[nH]1)n2C [Example 83, 2-((5-chloro-1H-benzo[d]imidazol-2-yl)amino)-N-(2-methoxyethyl)-1-methyl-1H-benzo[d]imidazole-5-carboxamide] | 16-21 | 
4 | CCn1c(Nc2nc3ccc(OC(F)(F)F)cc3o2)nc2cc(C(=O)O)ccc21 [Example 84, 1-ethyl-2-((6-(trifluoromethoxy)benzo[d]oxazol-2-yl)amino)-1H-benzo[d]imidazole-5-carboxylic acid] | 17 | 
5 | CCn1c(Nc2nc3ccc(OC(F)(F)F)cc3o2)nc2cc(C(=O)NCCOC)ccc21 [Example 85, 1-ethyl-N-(2-methoxyethyl)-2-((6-(trifluoromethoxy)benzo[d]oxazol-2-yl)amino)-1H-benzo[d]imidazole-5-carboxamide] |  | 1300
6 | COCCNC(=O)c1ccc2c(c1)nc(Nc1nc3ccc(OC(F)(F)F)cc3o1)n2CC1CCOC1 (centres unmarked) [Example 88, N-(2-methoxyethyl)-1-((tetrahydrofuran-3-yl)methyl)-2-((6-(trifluoromethoxy)benzo[d]oxazol-2-yl)amino)-1H-benzo[d]imidazole-5-carboxamide] |  | 1500
7 | CS(=O)(=O)CCn1c(Nc2nc3ccc(OC(F)(F)F)cc3o2)nc2cc(C(=O)O)ccc21 [Example 89, 1-(2-(methylsulfonyl)ethyl)-2-((6-(trifluoromethoxy)benzo[d]oxazol-2-yl)amino)-1H-benzo[d]imidazole-5-carboxylic acid] | 10 | 
8 | Cn1c(Nc2nc3ccc(Br)cc3o2)nc2cc(C(=O)O)ccc21 [Example 91, 2-((6-bromobenzo[d]oxazol-2-yl)amino)-1-methyl-1H-benzo[d]imidazole-5-carboxylic acid] | 17-26 | 
9 | COc1ccc2nc(Nc3nc4cc(C(=O)NCCO)ccc4n3C)oc2c1 [Example 92, N-(2-hydroxyethyl)-2-((6-methoxybenzo[d]oxazol-2-yl)amino)-1-methyl-1H-benzo[d]imidazole-5-carboxamide] | 12-20 | 
10 | COCCNC(=O)c1ccc2c(c1)nc(Nc1nc3ccc(OC(F)(F)F)cc3o1)n2CC1(O)COC1 [Example 94, 1-((3-hydroxyoxetan-3-yl)methyl)-N-(2-methoxyethyl)-2-((6-(trifluoromethoxy)benzo[d]oxazol-2-yl)amino)-1H-benzo[d]imidazole-5-carboxamide] | 28 | 
11 | Cn1c(Nc2nc3ccc(Cl)cc3o2)nc2cc(C(=O)O)ccc21 [Example 96, 2-((6-chlorobenzo[d]oxazol-2-yl)amino)-1-methyl-1H-benzo[d]imidazole-5-carboxylic acid] | 39-56 | 
12 | Cn1c(Nc2nc3ccc(OCC(F)(F)F)cc3o2)nc2cc(C(=O)O)ccc21 [Example 98, 1-methyl-2-((6-(2,2,2-trifluoroethoxy)benzo[d]oxazol-2-yl)amino)-1H-benzo[d]imidazole-5-carboxylic acid] | 36-56 | 
13 | Cn1c(Nc2nc3ccc(OCCO)cc3o2)nc2cc(C(=O)NCCO)ccc21 [Example 103, 2-((6-(2-hydroxyethoxy)benzo[d]oxazol-2-yl)amino)-N-(2-hydroxyethyl)-1-methyl-1H-benzo[d]imidazole-5-carboxamide] | 37-39 | 
14 | Cn1c(Nc2nc3ccc(OCCO)cc3o2)nc2cc(C(=O)NCCOCCO)ccc21 [Example 104, 2-((6-(2-hydroxyethoxy)benzo[d]oxazol-2-yl)amino)-N-(2-(2-hydroxyethoxy)ethyl)-1-methyl-1H-benzo[d]imidazole-5-carboxamide] | 23 | 
15 | Cn1c(Nc2nc3cc(F)c(C(F)(F)F)cc3o2)nc2cc(C(=O)O)ccc21 [Example 107, 2-((5-fluoro-6-(trifluoromethyl)benzo[d]oxazol-2-yl)amino)-1-methyl-1H-benzo[d]imidazole-5-carboxylic acid] | 45 | 
16 | Cn1c(Nc2nc3cc(F)c(C(F)(F)F)cc3o2)nc2cc(C(=O)NCCO)ccc21 [Example 108, 2-((5-fluoro-6-(trifluoromethyl)benzo[d]oxazol-2-yl)amino)-N-(2-hydroxyethyl)-1-methyl-1H-benzo[d]imidazole-5-carboxamide] | 29 | 
17 | COCCNC(=O)c1ccc2c(c1)nc(Nc1nc3ncccc3o1)n2C [Example 112, N-(2-methoxyethyl)-1-methyl-2-(oxazolo[4,5-b]pyridin-2-ylamino)-1H-benzo[d]imidazole-5-carboxamide] | 15 | 

Continued, in another order:

Row | Maximum Fold induction | SMILES | EC50 [nM]
18 | 15-32 | CCn1c(Nc2nc3ccc(OC(F)(F)F)cc3o2)nc2cc(C(=O)NCCO)ccc21 [Example 86, 1-ethyl-N-(2-hydroxyethyl)-2-((6-(trifluoromethoxy)benzo[d]oxazol-2-yl)amino)-1H-benzo[d]imidazole-5-carboxamide] | 
19 | 21 | O=C(O)c1ccc2c(c1)nc(Nc1nc3ccc(OC(F)(F)F)cc3o1)n2CC1CCOC1 (centres unmarked) [Example 87, 1-((tetrahydrofuran-3-yl)methyl)-2-((6-(trifluoromethoxy)-benzo[d]oxazol-2-yl)amino)-1H-benzo[d]imidazole-5-carboxylic acid] | 
20 | 22 | COCCNC(=O)c1ccc2c(c1)nc(Nc1nc3ccc(OC(F)(F)F)cc3o1)n2CCS(C)(=O)=O [Example 90, N-(2-methoxyethyl)-1-(2-(methylsulfonyl)ethyl)-2-((6-(trifluoromethoxy)benzo[d]oxazol-2-yl)amino)-1H-benzo[d]imidazole-5-carboxamide] | 
21 | 22 | O=C(O)c1ccc2c(c1)nc(Nc1nc3ccc(OC(F)(F)F)cc3o1)n2CC1(O)COC1 [Example 93, 1-((3-hydroxyoxetan-3-yl)methyl)-2-((6-(trifluoromethoxy)benzo[d]oxazol-2-yl)amino)-1H-benzo[d]imidazole-5-carboxylic acid] | 
22 | 21 | O=C(NCCO)c1ccc2c(c1)nc(Nc1nc3ccc(OC(F)(F)F)cc3o1)n2CC1(O)COC1 [Example 95, N-(2-hydroxyethyl)-1-((3-hydroxyoxetan-3-yl)methyl)-2-((6-(trifluoromethoxy)benzo[d]oxazol-2-yl)amino)-1H-benzo[d]imidazole-5-carboxamide] | 
23 | 33-51 | Cn1c(Nc2nc3ccc(Cl)cc3o2)nc2cc(C(=O)NCCO)ccc21 [Example 97, 2-((6-chlorobenzo[d]oxazol-2-yl)amino)-N-(2-hydroxyethyl)-1-methyl-1H-benzo[d]imidazole-5-carboxamide] | 
24 | 25-31 | COCCNC(=O)c1ccc2c(c1)nc(Nc1nc3ccc(OCC(F)(F)F)cc3o1)n2C [Example 99, N-(2-methoxyethyl)-1-methyl-2-((6-(2,2,2-trifluoroethoxy)benzo[d]oxazol-2-yl)amino)-1H-benzo[d]imidazole-5-carboxamide] | 
25 | 24-35 | Cn1c(Nc2nc3ccc(OCC(F)(F)F)cc3o2)nc2cc(C(=O)NCCO)ccc21 [Example 100, N-(2-hydroxyethyl)-1-methyl-2-((6-(2,2,2-trifluoroethoxy)benzo[d]oxazol-2-yl)amino)-1H-benzo[d]imidazole-5-carboxamide] | 
26 | 21 | Cn1c(Nc2nc3ccc(OCCO)cc3o2)nc2cc(C(=O)O)ccc21 [Example 101, 2-((6-(2-hydroxyethoxy)benzo[d]oxazol-2-yl)amino)-1-methyl-1H-benzo[d]imidazole-5-carboxylic acid] | 
27 | 26-40 | COCCNC(=O)c1ccc2c(c1)nc(Nc1nc3ccc(OCCO)cc3o1)n2C [Example 102, 2-((6-(2-hydroxyethoxy)benzo[d]oxazol-2-yl)amino)-N-(2-methoxyethyl)-1-methyl-1H-benzo[d]imidazole-5-carboxamide] | 
28 | 36 | Cl.Cn1c(Nc2nc3ccc(OCCO)cc3o2)nc2cc(C(=O)NCCN)ccc21 [Example 105, N-(2-aminoethyl)-2-((6-(2-hydroxyethoxy)benzo[d]oxazol-2-yl)amino)-1-methyl-1H-benzo[d]imidazole-5-carboxamide hydrochloride] | 
29 | 6 | Cn1c(Nc2nc3ccc(OCCO)cc3o2)nc2cc(C(=O)NCCNC3=NCCN3)ccc21 [Example 106, N-(2-((4,5-dihydro-1H-imidazol-2-yl)amino)ethyl)-2-((6-(2-hydroxyethoxy)benzo[d]oxazol-2-yl)amino)-1-methyl-1H-benzo[d]imidazole-5-carboxamide] | 
30 | 26 | COCCNC(=O)c1ccc2c(c1)nc(Nc1nc3cccnc3o1)n2C [Example 109, N-(2-methoxyethyl)-1-methyl-2-(oxazolo[5,4-b]pyridin-2-ylamino)-1H-benzo[d]imidazole-5-carboxamide] | 
31 | 60 | Cn1c(Nc2nc3cccnc3o2)nc2cc(C(=O)NCCO)ccc21 [Example 110, N-(2-hydroxyethyl)-1-methyl-2-(oxazolo[5,4-b]pyridin-2-ylamino)-1H-benzo[d]imidazole-5-carboxamide] | 
32 | 3 | Cn1c(Nc2nc3ncccc3o2)nc2cc(C(=O)O)ccc21 [Example 111, 1-methyl-2-(oxazolo[4,5-b]pyridin-2-ylamino)-1H-benzo[d]imidazole-5-carboxylic acid] | 
